Measurements as given in PubChem BioAssay (NCI).
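Protocol summary: plate cells (96-well), add compound at 5 concentrations, incubate 48 h, interpolate endpoints linearly. TGI is the concentration that stops growth completely.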

Experiments:
Assay in all cases: DTP human tumour cell line panel, 48 h
HS 578T breast = tested on: HS 578T breast
M14 melanoma = tested on: M14 melanoma
MDA-N = tested on: MDA-N
A498 renal = tested on: A498 renal
TK-10 renal = tested on: TK-10 renal
SR leukemia = tested on: SR leukemia
MDA-MB-231 breast = tested on: MDA-MB-231 breast
HCT-116 colon = tested on: HCT-116 colon
MDA-MB-435 = tested on: MDA-MB-435
SNB-75 CNS = tested on: SNB-75 CNS
DU-145 prostate = tested on: DU-145 prostate
OVCAR-8 ovarian = tested on: OVCAR-8 ovarian
SF-295 CNS = tested on: SF-295 CNS
IGROV1 ovarian = tested on: IGROV1 ovarian
HOP-92 NSCLC = tested on: HOP-92 NSCLC
NCI/ADR-RES ovarian = tested on: NCI/ADR-RES ovarian
SNB-78 CNS = tested on: SNB-78 CNS
DLD-1 colon = tested on: DLD-1 colon
KM20L2 colon = tested on: KM20L2 colon
HOP-18 NSCLC = tested on: HOP-18 NSCLC

Row | SMILES | TGI (HS 578T breast) | TGI (M14 melanoma) | TGI (MDA-N) | TGI (A498 renal) | TGI (TK-10 renal) | TGI (SR leukemia) | TGI (MDA-MB-231 breast) | TGI (HCT-116 colon) | TGI (MDA-MB-435) | TGI (SNB-75 CNS) | TGI (DU-145 prostate) | TGI (OVCAR-8 ovarian) | TGI (SF-295 CNS) | TGI (IGROV1 ovarian) | TGI (HOP-92 NSCLC) | TGI (NCI/ADR-RES ovarian) | TGI (SNB-78 CNS) | TGI (DLD-1 colon) | TGI (KM20L2 colon) | TGI (HOP-18 NSCLC)
1 | CCCOP(=O)(OCCC)OC(C(F)(F)F)C(F)(F)F | > 100 µM | > 100 µM | > 100 µM | > 100 µM | > 100 µM | > 100 µM | > 100 µM | > 100 µM | > 100 µM | > 100 µM | > 100 µM |  |  |  |  |  |  |  |  | 
2 | CN1Cc2cc(O)c(O)cc2C(O)C1 (stereo not drawn) | > 100 µM | > 100 µM | > 100 µM |  | > 100 µM | > 100 µM | > 100 µM | > 100 µM | > 100 µM | > 100 µM | > 100 µM | > 100 µM | > 100 µM | > 100 µM | > 100 µM | > 100 µM |  |  |  | 
3 | CCOc1ccc(C(C)c2cc3c(cc2OC)OCO3)cc1 (stereo not drawn) |  | 45 µM |  |  | > 100 µM | 0.442 µM |  | 4.82 µM |  |  |  | 9.59 µM |  | > 100 µM | 9.93 µM |  | > 100 µM | 82.5 µM | 0.414 µM | > 100 µM
4 | COc1cc2c(cc1Oc1c(Oc3c(O)c(OC)cc4c3C(CC(C)C)N(C)CC4)c(OC)cc3c1C(CC(C)C)N(C)CC3)C(CC(C)C)N(C)CC2 (stereo not drawn) |  |  |  | 0.304 µM |  |  |  | 3.85 µM |  | 3.01 µM |  | 8.24 µM | 5.04 µM | 15.1 µM | 7.87 µM | 14.1 µM | 4.71 µM | 14.2 µM | 7.12 µM | 17.1 µM
5 | COC(=O)c1cn(CC(O)CCl)nn1 (stereo not drawn) | > 100 µM | > 100 µM | > 100 µM | > 100 µM | > 100 µM |  | > 100 µM |  | > 100 µM | > 100 µM | > 100 µM | > 100 µM |  | > 100 µM | > 100 µM | > 100 µM |  |  |  | 
6 | COc1cc2cc(C(=O)N3CC(CCl)c4ccc(N(C)C)cc43)[nH]c2c(OC)c1OC (stereo not drawn) | 0.758 µM | 0.237 µM | 0.431 µM |  | > 100 µM |  | 0.627 µM |  | 0.336 µM |  | 0.359 µM |  | 0.726 µM |  |  | 0.272 µM |  |  |  | 
7 | COC1=CC(=O)C=C(OC)C1=O |  |  |  | 3.39 µM |  |  |  | 15.1 µM |  | 55.9 µM |  | 32.1 µM | 34.6 µM | 31.3 µM | 7.89 µM | 10.1 µM | 56.8 µM | 27.9 µM | 66.8 µM | 79.7 µM
